Assay results published in patent publication US20130065885A1, “ORAL THERAPEUTIC COMPOUND DELIVERY SYSTEM” (IMAGINOT PTY LTD., priority 2004, published 2013).
Structures can show the parent of a compound that is named as a salt. Where two headings read alike, the source gives them in different places.

What was measured:
[1] = cited from earlier work
physchem = conditions: water

CN1CCC[C@@H]1Cc1c[nH]c2ccc(CCS(=O)(=O)c3ccccc3)cc12 [Eletriptan hydrobromide]
Volume of water to dissolve dose (dose as in the Dose (mg) column): 4 mL

CC(=O)Nc1ccc(O)cc1 [paracetamol]
volume needed for total dissolution of the dose (weight for weight basis, dose in the paracetamol/tramadol hydrochloride tablet): around 27 mL

COc1cccc(C2(O)CCCCC2CN(C)C)c1 (stereo not drawn) [tramadol hydrochloride]
solubility in water [1]: around 30 mg/mL
solubility (physchem): 30 mg/mL
Volume of water to dissolve dose: 1.3 mL
volume needed for total dissolution of the dose: around 1 mL
